Measurements reported in DBAASP.
≈ marks a conversion by molar mass, not a printed value.

Tests used:
Assay in all cases: ≥ marks a high value that may be exact or a test limit, other limits are often not marked, values filed in µg/mL are converted to µM
[1] = test system: Escherichia coli ATCC 25922
[2] = test system: Pseudomonas aeruginosa ATCC 27853
[3] = test system: Staphylococcus aureus ATCC 12600
[4] = test system: Streptococcus mutans ATCC 25175
Bacillus megaterium = test system: Bacillus megaterium
Escherichia coli ML-35 = test system: Escherichia coli ML-35
[5] = test system: Salmonella enterica subsp. enterica serovar Typhimurium ATCC 14028
[6] = test system: Staphylococcus aureus ATCC 25923
[7] = test system: Pseudomonas aeruginosa 253
[8] = test system: Pseudomonas aeruginosa 910
[9] = test system: Pseudomonas aeruginosa 919
[10] = test system: Pseudomonas aeruginosa PAO1
[11] = test system: Escherichia coli DH5alpha
Staphylococcus xylosus = test system: Staphylococcus xylosus
Escherichia coli = test system: Escherichia coli
Listeria innocua = test system: Listeria innocua
Micrococcus luteus A270 = test system: Micrococcus luteus A270
Bacillus subtilis 168 = test system: Bacillus subtilis 168
[12] = test system: Candida albicans F7-39/IDE99
Escherichia coli B = test system: Escherichia coli B
[13] = test system: Micrococcus luteus CCM 144
Pseudomonas aeruginosa = test system: Pseudomonas aeruginosa
Staphylococcus aureus = test system: Staphylococcus aureus
Candida albicans = test system: Candida albicans
[14] = test system: Enterococcus faecalis ATCC 29212
Escherichia coli UB1005 = test system: Escherichia coli UB1005
[15] = test system: Pseudomonas aeruginosa H103
[16] = test system: Salmonella enterica serovar Typhimurium
[17] = test system: Staphylococcus epidermidis
[18] = test system: Bacillus cereus ATCC 11778
[19] = test system: Escherichia coli ATCC 35218
[20] = test system: Pseudomonas aeruginosa ATCC 9027
[21] = test system: Escherichia coli ATCC 27325

With `CC[C@H](C)[C@H](NC(=O)[C@H](C)NC(=O)CNC(=O)[C@H](Cc1ccccc1)NC(=O)[C@H](CC(C)C)NC(=O)CN)C(=O)N[C@@H](C)C(=O)NCC(=O)N[C@@H](Cc1ccccc1)C(=O)N[C@H](C(=O)N[C@@H](CCCCN)C(=O)N[C@@H](CCCCN)C(=O)NCC(=O)N[C@@H](Cc1c[nH]c2ccccc12)C(=O)N[C@@H](CCCCN)C(=O)NCC(=O)N[C@@H](CCSC)C(=O)N[C@H](C(=O)N[C@@H](CCCCN)C(=O)NCC(N)=O)C(C)C)[C@@H](C)CC` [GLFGAIAGFIKKGWKGMVKG] the MIC [1] was 7.6 µM (≈ 15.7 µg/mL), the MIC [2] was 7.6 µM (≈ 15.7 µg/mL) and the MIC [3] was 3.8 µM (≈ 7.85 µg/mL). It also gave an MIC [4] of 1.9 µM (≈ 3.92 µg/mL).
`CC[C@H](C)[C@H](NC(=O)[C@H](CCCCN)NC(=O)[C@H](CCCCN)NC(=O)[C@H](CC(C)C)NC(=O)[C@H](CCCCN)NC(=O)[C@H](CCC(N)=O)NC(=O)[C@H](CCCCN)NC(=O)[C@@H](NC(=O)[C@H](CCCCN)NC(=O)[C@H](CC(N)=O)NC(=O)[C@H](CCCN=C(N)N)NC(=O)[C@H](Cc1ccccc1)NC(=O)[C@H](CCCCN)NC(=O)[C@H](CCCN=C(N)N)NC(=O)[C@H](CC(C)C)NC(=O)[C@H](CCCN=C(N)N)NC(=O)[C@H](CCCCN)NC(=O)[C@H](CCCN=C(N)N)NC(=O)[C@H](CC(C)C)NC(=O)CN)[C@@H](C)CC)C(=O)O` [GLRKRLRKFRNKIKQKLKKI] gave an MIC (Bacillus megaterium) of 4 µM (≈ 10.2 µg/mL), an MIC [1] of 4 µM (≈ 10.2 µg/mL) and an MIC (Escherichia coli ML-35) of 2 µM (≈ 5.1 µg/mL). The MIC [2] was 0.5 µM (≈ 1.28 µg/mL), the MIC [5] was 2 µM (≈ 5.1 µg/mL) and the MIC [6] was 4 µM (≈ 10.2 µg/mL).
With `CC[C@H](C)[C@H](N)C(=O)N[C@@H](CC(C)C)C(=O)N[C@@H](CCCCN)C(=O)N[C@@H](Cc1c[nH]c2ccccc12)C(=O)N[C@@H](CCCCN)C(=O)N[C@@H](CCCCN)C(=O)NCC(=O)N[C@@H](Cc1c[nH]c2ccccc12)C(=O)N[C@@H](Cc1c[nH]c2ccccc12)C(=O)N[C@@H](CCCCN)C(=O)N[C@@H](Cc1c[nH]c2ccccc12)C(=O)N[C@@H](Cc1ccccc1)C(=O)N[C@@H](CCCN=C(N)N)C(N)=O` [ILKWKKGWWKWFR] the MIC [7] was 8 µM (≈ 14.9 µg/mL), the MIC [8] was 4 µM (≈ 7.45 µg/mL) and the MIC [9] was 16 µM (≈ 29.8 µg/mL). For the same molecule, the MIC [10] was 4 µM (≈ 7.45 µg/mL).
For `CC[C@H](C)[C@H](N)C(=O)N[C@@H](CC(C)C)C(=O)N[C@@H](CCCCN)C(=O)N[C@@H](Cc1c[nH]c2ccccc12)C(=O)N[C@@H](CCCCN)C(=O)N[C@@H](CCCN=C(N)N)C(=O)N[C@@H](CCCCN)C(=O)N[C@@H](Cc1c[nH]c2ccccc12)C(=O)N[C@@H](Cc1c[nH]c2ccccc12)C(=O)N[C@@H](CCCCN)C(=O)N[C@@H](Cc1c[nH]c2ccccc12)C(=O)N[C@@H](CCCN=C(N)N)C(=O)N[C@@H](CCCN=C(N)N)C(N)=O` [ILKWKRKWWKWRR], the MIC [7] was 4 µM (≈ 7.88 µg/mL), the MIC [8] was 2 µM (≈ 3.94 µg/mL) and the MIC [9] was 16 µM (≈ 31.5 µg/mL). For the same molecule, the MIC [10] was 1 µM (≈ 1.97 µg/mL).
`NCCCC[C@H](NC(=O)[C@H](CCCCN)NC(=O)[C@H](CCCCN)NC(=O)[C@H](Cc1ccccc1)NC(=O)[C@H](Cc1ccccc1)NC(=O)[C@H](Cc1ccccc1)NC(=O)[C@H](Cc1ccccc1)NC(=O)[C@H](Cc1ccccc1)NC(=O)[C@H](CCCCN)NC(=O)[C@H](CCCCN)NC(=O)[C@@H](N)CCCCN)C(=O)O` [KKKFFFFFKKK] was tested, and the MIC [11] was 16 µM (≈ 24.4 µg/mL) and the MIC (Staphylococcus xylosus) was 4 µM (≈ 6.09 µg/mL).
With `CC(C)C[C@H](NC(=O)[C@@H](NC(=O)[C@@H](NC(=O)[C@H](CC(C)C)NC(=O)[C@H](CC(C)C)NC(=O)[C@H](CO)NC(=O)[C@H](Cc1cnc[nH]1)NC(=O)[C@H](CO)NC(=O)[C@H](CC(C)C)NC(=O)[C@H](CC(C)C)NC(=O)[C@H](CCCCN)NC(=O)[C@H](Cc1ccccc1)NC(=O)[C@H](CC(N)=O)NC(=O)[C@@H](NC(=O)[C@@H]1CCCN1C(=O)[C@H](CC(=O)O)NC(=O)[C@@H](NC(=O)[C@H](CCCN=C(N)N)NC(=O)[C@H](CC(C)C)NC(=O)[C@H](CCCCN)NC(=O)[C@H](Cc1cnc[nH]1)NC(=O)[C@H](C)NC(=O)[C@H](Cc1cnc[nH]1)NC(=O)[C@@H](N)CC(C)C)C(C)C)C(C)C)C(C)C)[C@@H](C)O)C(=O)O` [LHAHKLRVDPVNFKLLSHSLLVTL] the MIC (Escherichia coli) was 11 µM (≈ 30.3 µg/mL), the MIC (Listeria innocua) was 11 µM (≈ 30.3 µg/mL) and the MIC (Micrococcus luteus A270) was at least 45 µM.
Work on `CC[C@H](C)[C@H](NC(=O)[C@H](C)NC(=O)CNC(=O)[C@H](Cc1c[nH]c2ccccc12)NC(=O)[C@H](CCCCN)NC(=O)[C@@H](N)CC(C)C)C(=O)N[C@@H](CC(C)C)C(=O)N[C@@H](CCCCN)C(=O)N[C@@H](Cc1cnc[nH]1)C(=O)N[C@H](C(=O)N[C@H](C(=O)N[C@@H](CCCCN)C(N)=O)[C@@H](C)CC)[C@@H](C)CC` [LKWGAILKHIIK] yielded an MIC (Bacillus subtilis 168) of 3.7 µM (≈ 5.25 µg/mL), an MIC [12] of 5.1 µM (≈ 7.24 µg/mL) and an MIC (Escherichia coli B) of 3.7 µM (≈ 5.25 µg/mL). It also gave an MIC [13] of 3.7 µM (≈ 5.25 µg/mL), an MIC (Pseudomonas aeruginosa) of 46.7 µM (≈ 66.3 µg/mL) and an MIC (Staphylococcus aureus) of 11.7 µM (≈ 16.6 µg/mL).
With `CC(C)C[C@H](NC(=O)[C@H](C)NC(=O)[C@H](C)NC(=O)CNC(=O)[C@H](Cc1c[nH]c2ccccc12)NC(=O)[C@H](CC(N)=O)NC(=O)[C@@H](N)CC(C)C)C(=O)N[C@@H](CCCCN)C(=O)N[C@@H](Cc1cnc[nH]1)C(=O)N[C@@H](C)C(=O)N[C@@H](C)C(=O)N[C@@H](CCCCN)C(N)=O` [LNWGAALKHAAK] the MIC (Bacillus subtilis 168) was at least 100 µM, the MIC [12] was at least 100 µM and the MIC (Escherichia coli B) was at least 100 µM. It also gave an MIC [13] of at least 100 µM, an MIC (Pseudomonas aeruginosa) of over 100 µM and an MIC (Staphylococcus aureus) of over 100 µM.
`CC[C@H](C)[C@H](NC(=O)[C@H](CCCN=C(N)N)NC(=O)[C@H](Cc1c[nH]c2ccccc12)NC(=O)[C@H](CC(C)C)NC(=O)[C@@H](N)CCCN=C(N)N)C(=O)N[C@H](C(=O)N[C@H](C(=O)N[C@H](C(=O)N[C@@H](CCCN=C(N)N)C(=O)N[C@H](C(=O)N[C@@H](C)C(=O)N[C@@H](CCCN=C(N)N)C(N)=O)C(C)C)[C@@H](C)CC)C(C)C)C(C)C` [RLWRIVVIRVAR] gave an MIC (Candida albicans) of 5.21 µM (≈ 7.99 µg/mL), an MIC [14] of 1.3 µM (≈ 2 µg/mL) and an MIC (Escherichia coli UB1005) of 1.3 µM (≈ 2 µg/mL). The MIC [7] was at least 32 µM, the MIC [8] was at least 32 µM and the MIC [9] was at least 32 µM. For the same molecule, the MIC [15] was 5.21 µM (≈ 7.99 µg/mL), the MIC [10] was 16 µM (≈ 24.6 µg/mL) and the MIC [16] was 5.21 µM (≈ 7.99 µg/mL). It also gave an MIC [6] of 1.3 µM (≈ 2 µg/mL) and an MIC [17] of 0.325 µM (≈ 0.5 µg/mL).
In the case of `CC(C)C[C@H](NC(=O)[C@H](CC(C)C)NC(=O)[C@@H](N)[C@@H](C)O)C(=O)N[C@@H](CCCCN)C(=O)N[C@@H](CCCCN)C(=O)N[C@H](C(=O)N[C@@H](CC(C)C)C(=O)N[C@@H](CCCCN)C(=O)N[C@@H](C)C(=O)N[C@@H](C)C(=O)N[C@@H](C)C(N)=O)C(C)C` [TLLKKVLKAAA], the MIC [18] is reported as at least 50 µM, the MIC [19] is reported as at least 50 µM and the MIC [20] is reported as over 50 µM. The MIC [6] was over 50 µM.
`CC(C)C[C@H](NC(=O)CNC(=O)[C@H](C)NC(=O)[C@H](CCCN=C(N)N)NC(=O)[C@H](CO)NC(=O)[C@H](CO)NC(=O)[C@H](CCCN=C(N)N)NC(=O)[C@@H](N)[C@@H](C)O)C(=O)N[C@@H](CCC(N)=O)C(=O)N[C@@H](Cc1c[nH]c2ccccc12)C(=O)N[C@@H](C)C(=O)N[C@H](C(=O)NCC(=O)N[C@@H](CCCN=C(N)N)C(=O)N[C@H](C(=O)N[C@@H](Cc1cnc[nH]1)C(=O)N[C@@H](CCCN=C(N)N)C(=O)N[C@@H](CC(C)C)C(=O)N[C@@H](CC(C)C)C(=O)N[C@@H](CCCN=C(N)N)C(=O)N[C@@H](CCCCN)C(=O)O)C(C)C)C(C)C` [TRSSRAGLQWAVGRVHRLLRK] gave an MIC [21] of 6 µM (≈ 14.7 µg/mL).
